“Also recorded” adds a separate entry of the source.
Assays:
Nluc luciferase = Nluc luciferase (Oplophorus gracilirostris, UniProt Q9GV45, A31E/A60N/A81I/F95D/I117V/K70R/L54V/L99Q/M102K/N193R/P142E/Q151K/Q38R/Q45L/V71I/Y165I); assay: Inhibition of purified Nluc, dose and time dependence; type: biochemical; conditions: pro-substrate PBI-4442, DTT, TERGITOL, RT, various time points
Procedure: A solution of purified Nluc and an Nluc pro-substrate (PBI-4442, which is described in US 2013/0130289), which is converted to an Nluc substrate upon reduction with DTT, were prepared in PBS buffer, pH 7.5. A 40 mM solution of DTT in PBS, pH 7.5 containing 1% TERGITOL was also prepared. Titrations of the thienopyrrole compounds JRW-0004, WZ141-88, WZ141-86, WZ141-74, WZ141-84, WZ141-89, WZ141-90, and WZ141-91 in the buffer containing DTT and TERGITOL were then prepared. An equal volume of the Nluc/pro-substrate solution was added to the thienopyrrole compound titrations in wells of an assay plate. The reactions were incubated at RT, and luminescence was measured at various time points on the Tecan M100 Pro plate reader (integration time 200 ms). IC50 values were determined using GraphPad Prism 6.03.

Nluc enzyme = assay: Multiplex RealTime-Glo / Caspase-Glo 3/7 in MCF7 cells; type: cell-based
Procedure: (§1) A) In a Corning 3570 assay plate, MCF7 cells were plated at 1,000 cells/well in 20 μL of cell culture media (EMEM supplemented with 0.01 mg/mL human recombinant insulin and 10% fetal bovine serum) and incubated in overnight. 10 μL of 4× REALTIME-GLO™ MT Cell Viability reagents (Promega Corporation) in media or 10 μL media only was added to the cells. 10 μL of 40 μM staurosporine in media or 10 μL media only (control) was added to the cells. The cells were incubated, and caspase activation monitored at 5.5 hrs post-reagent addition. To monitor caspase activation, 40 μL CASPASE-GLO® 3/7 Assay Reagent (Promega Corporation), either on its own (Caspase) or with 200 μM of JRW-0004, JRW-0013, or JRW-0042, was added. Reactions were incubated at RT, and luminescence was measured at 1 hr 10 min post-reagent addition on Tecan M1000 Pro plate reader.
(§2) When comparing the signal generated from the CASPASE-GLO® reagent in media only versus the signal generated in media containing REALTIME-GLO™ reagent, the signal is higher in the multiplex reaction.

[1] = target: T1, Nluc enzyme in REALTIME-GLO™ MT Cell Viability reagent (Oplophorus gracilirostris, UniProt Q9GV45, A31E/A60N/A81I/F95D/I117V/K70R/L54V/L99Q/M102K/N193R/P142E/Q151K/Q38R/Q45L/V71I/Y165I); assay: RealTime-Glo / Caspase-Glo multiplex in K562 cells; type: cell-based; conditions: Trail titration, 200 μM in CASPASE-GLO 3/7 reagent, 2 hrs RT
T1 construct: purchased Promega Corporation
T1 sequence (Q9GV45 28-196 with tags or gaps with the stated changes limits assumed): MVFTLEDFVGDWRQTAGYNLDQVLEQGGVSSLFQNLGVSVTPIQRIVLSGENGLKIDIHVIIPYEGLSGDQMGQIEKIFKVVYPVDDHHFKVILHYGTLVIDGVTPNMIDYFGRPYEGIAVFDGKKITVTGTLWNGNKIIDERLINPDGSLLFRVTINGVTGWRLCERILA
Procedure: K562 were plated into wells of a Corning 3707 assay plate in 20 μL RPMI media at 2000 cells/well and incubated overnight. A Trail titration was prepared in 10 μL RPMI media and added to cells. Then either 10 μL 4× REALTIME-GLO™ MT Cell Viability reagent (RTCV; Promega Corporation) or media (control) was added to each well. The reactions were incubated at 37° C./5% CO2 at various time points, and luminescence was measured on a Tecan M1000 Pro plate reader. At 5 hrs, 40 μL CASPASE-GLO® 3/7 detection reagent (Promega Corporation) was added with or without 200 μM JRW-0004. The reaction was incubated for 2 hrs at room temperature (RT), and luminescence was measured on the Tecan M1000 Pro plate reader.

[2] = tested on: firefly luciferase, e.g., ULTRAGLO® luciferase; assay: Specificity of inhibition: firefly luciferase activity; type: biochemical; conditions: 1 μM luciferin in Luciferase Detection Reagent; RT 2 hrs
Procedure: The following example describes the specificity of disclosed thienopyrrole compounds, JRW-0004, JRW-0013, JRW-0006, JRW-0042, JRW-0138, and JRW-0147, to inhibit Nluc luciferase activity versus firefly luciferase activity, e.g., ULTRAGLO® luciferase. In a Corning 3570 assay plate, a solution containing 1 μM luciferin in Luciferase Detection Reagent (Promega Corporation V865/859) was added to the assay wells. An equal volume of titrations the thienopyrrole compounds, JRW-0004, JRW-0013, JRW-0006, JRW-0042, JRW-0138, and JRW-0147 were then added to the wells. The reactions were incubated at RT for 2 hrs, and luminescence was measured on Tecan M1000 Pro plate reader.

NANOLUC® enzyme = NANOLUC® enzyme (Oplophorus gracilirostris, UniProt Q9GV45, A31E/A60N/A81I/F95D/I117V/K70R/L54V/L99Q/M102K/N193R/P142E/Q151K/Q38R/Q45L/V71I/Y165I); assay: Inhibitor IC50 determination (NANOLUC enzyme, furimazine); type: biochemical; conditions: IC50 (uM), 0.4 ng/ml NANOLUC enzyme, final furimazine 10 uM (at Km)
Chain of NANOLUC® enzyme (Q9GV45 28-196 with tags or gaps with the stated changes limits assumed): as above

Nluc = Nluc (Oplophorus gracilirostris, UniProt Q9GV45, A31E/A60N/A81I/F95D/I117V/K70R/L54V/L99Q/M102K/N193R/P142E/Q151K/Q38R/Q45L/V71I/Y165I); assay: Multiplex RealTime-Glo / Caspase-Glo 3/7 in MCF7 cells; type: cell-based; design: purchased Promega Corporation
Chain of Nluc (Q9GV45 28-196 with tags or gaps with the stated changes limits assumed): as above
Procedure: as §1, §2

purified Nluc enzyme = target: T2, purified Nluc enzyme (Oplophorus gracilirostris, UniProt Q9GV45, A31E/A60N/A81I/F95D/I117V/K70R/L54V/L99Q/M102K/N193R/P142E/Q151K/Q38R/Q45L/V71I/Y165I); type: biochemical; conditions: titration up to 100 μM final; RT 2 hrs; pro-substrate PBI-4442 + DTT
T2 construct: purchased Promega Corporation
T2 sequence (Q9GV45 28-196 with tags or gaps with the stated changes limits assumed): as above
Procedure: In a Corning 3570 assay plate, purified Nluc enzyme (Promega Corporation), 20 mM DTT, and an Nluc pro-substrate (PBI-4442, which is described in US Patent Publication No. 2013/0130289), which is converted to an Nluc substrate upon reduction with DTT, was added. Compound titrations of JRW-0004, JRW-0013, JRW-0006, JRW-0042, JRW-0138, and JRW-0147 were then made (1:2 serial dilution in PBS, 11 points plus no inhibitor control, starting at 200 μM; 100 μM final concentration in reaction). Compound titrations were added in equal volume to the wells of the assay plate. The reactions were incubated at RT for 2 hrs, and luminescence was measured on Tecan M1000 Pro plate reader. Half-maximal inhibitor (thienopyrrole compound) concentrations (IC50s) were determined using GraphPad Prism 6.03.

[3] = 10 μM Stauro vs Control, 200 μM compound
[4] = CASPASE-GLO 3/7 reagent with 200 μM compound, 1 hr 10 min

Chain of Nluc luciferase (Q9GV45 28-196 with tags or gaps with the stated changes limits assumed): as above

Q: What does the source list for `CCN(C(=O)Cn1c(C(=O)OC)cc2sccc21)c1cccc(C)c1` [JRW-0004, methyl 4-(2-(ethyl(m-tolyl)amino)-2-oxoethyl)-4H-thieno[3,2-b]pyrrole-5-carboxylate]?
A: Inhibition of Nluc luciferase, dose and time dependence (FIGS. 4-6) (Nluc luciferase): inhibit Nluc luciferase in a dose- and time-dependent manner; Fold Cont, Media only (Nluc enzyme; [3]): 5.89; Avg (luminescence), Media only, 10 μM Stauro (Nluc enzyme; [4]): 54589; Avg (luminescence), Media only, Control (Nluc enzyme; [4]): 9261; Inhibition of Nluc enzyme in RealTime-Glo reagent (FIG. 1) [1]: can inhibit the Nluc enzyme; Inhibition of firefly luciferase activity (FIG. 3) [2]: do not inhibit firefly luciferase activity; also recorded: did not inhibit the firefly luciferase activity; IC50 (NANOLUC® enzyme): 1.1 µM; Fold Cont, Media containing RealTime-Glo (Nluc; [3]): 5.53; Avg (luminescence), Media containing RealTime-Glo, 10 μM Stauro (Nluc; [4]): 50266; Avg (luminescence), Media containing RealTime-Glo, Control (Nluc; [4]): 9090; Inhibition of purified Nluc enzyme (FIG. 2) (purified Nluc enzyme): capable of inhibiting purified Nluc enzyme

Source: patent publication US10513694B2, “Thienopyrrole compounds and uses thereof” (PROMEGA CORPORATION, priority 2015, dated 2019)
